The source of these data is patent US7868037B2 (PTC Therapeutics, Inc., priority 2004, dated 2011).

Read-outs that look alike come from different tables or passages of the source. Bounds are passed on as bounds.

In data set [1] the test system is HCV replicon. Kind of data set: microbe, parasite or virus in culture. The data set is classed as cell-based, hepatitis C virus.
Where [2] appears, read: Hepatitis C virus, read-out: Replicon IC50 μM.

With `CCOc1ccc2c(C#N)c(-c3ccc(NC(=O)OC(C)C4CC4)cc3)n(C3CCC3)c2c1` (racemic) [Compound 1147, rac-[4-(3-cyano-1-cyclobutyl-6-ethoxy-1H-indol-2-yl)-phenyl]-carbamic acid 1-cyclopropyl-ethyl ester], the melting point was in the range of 154 to 158 °C.

Take `CCn1cc(C#N)c2ccc(OC)cc21` [Compound 5, 1-ethyl-6-methoxy-1H-indole-3-carbonitrile]: the melting point fell in the range of 64 to 66 °C. Moreover, the IC50 in data set [1] (setting [2]) was above 2 µM.

`N#Cc1c(-n2cccc2)[nH]c2cc([N+](=O)[O-])ccc12` [Compound 7, 6-nitro-2-pyrrol-1-yl-1H-indole-3-carbonitrile] showed a melting point of 304 to 305 °C. Further, the half-maximal inhibitory concentration (IC50) in data set [1] (setting [2]) lay within 0.5 to 2 µM.

Molecule `CCOc1ccc2c(C#N)cn(CC)c2c1` [Compound 9, 6-ethoxy-1-ethyl-1H-indole-3-carbonitrile] came in with a melting point of 61 to 63 °C. For the same molecule, the IC50 in data set [1] (setting [2]) is above 2 µM.

As to `CCn1cc(C#N)c2ccc(Oc3cnccn3)cc21` [Compound 13, 1-ethyl-6-(pyrazin-2-yloxy)-1H-indole-3-carbonitrile], the melting point was in the range of 161 to 164 °C. In addition, in data set [1] (setting [2]), the IC50 is above 2 µM.

In turn, `CCn1cc(C#N)c2ccc(C(=O)Nc3ccccc3)cc21` [Compound 15, 3-cyano-1-ethyl-1H-indole-6-carboxylic acid phenylamide] showed a melting point of 225 to 226 °C. The IC50 in data set [1] (setting [2]) is above 2 µM.

`CCn1cc(C#N)c2ccc(NC(=O)OC(C)(C)C)cc21` [Compound 16, t-butyl(3-cyano-1-ethyl-1H-indol-6-yl)-carbamate] displayed a melting point of 175 to 177 °C. For the same molecule, the half-inhibitory concentration (IC50) in data set [1] (setting [2]) is above 2 µM.

For `CCc1nc(-c2cn(CC)c3cc(OC)ccc23)no1` [Compound 28, 1-ethyl-3-(5-ethyl-[1,2,4]oxadiazol-3-yl)-6-methoxy-1H-indole], the melting point lay in the range of 68 to 70 °C. Also, the IC50 in data set [1] (setting [2]) was in the range of 0.5 to 2 µM.

`COc1ccc(-n2cc(C#N)c3cc4c(cc32)OCO4)cc1` [Compound 44, 5-(4-methoxyphenyl)-5H-[1,3]dioxolo[4,5-f]indole-7-carbonitrile]: the IC50 in data set [1] (setting [2]) was above 2 µM.

In the case of `CCn1cc(-c2ccon2)c2ccc(OC)cc21` [Compound 57, 1-ethyl-3-isoxazol-3-yl-6-methoxy-1-H-indole], the IC50 in data set [1] (read-out: Replicon IC50) is above 2 µM.

Regarding `CCn1cc(-c2nccs2)c2ccc(OC)cc21` [Compound 73, 1-ethyl-6-methoxy-3-thiazol-2-yl-1H-indole], in data set [1] (setting [2]), the IC50 was above 2 µM.

Consider `CCn1c(C#Cc2ccc(NP(C)(C)=O)cc2)c(C#N)c2ccc(OC)cc21` [Compound 227, N-[4-(3-cyano-1-ethyl-6-methoxy-1H-indol-2-ylethynyl)-phenyl]-dimethylphosphinic amide], for which the IC50 in data set [1] (read-out: Replicon IC50) was in the range of 0.5 to 2 µM.

For the molecule `CCn1c(-c2ccc(NC(=O)C3CC3)cc2)c(C#N)c2cc(OC)ccc21` [Compound 244], the IC50 in data set [1] (read-out: Replicon IC50) was in the range of 0.5 to 2 µM.

With `CCn1c(-c2ccc3oc(=O)[nH]c3c2)c(C#N)c2ccc(OC)cc21` [Compound 332, 1-ethyl-6-methoxy-2-(2-oxo-2,3-dihydro-benzooxazol-5-yl)-1H-indole-3-carbonitrile], in data set [1] (setting [2]), the IC50 was above 2 µM.

Take `CCn1c(-c2ccc(NC(=O)NCCCl)cc2)c(C#N)c2ccc(OC)cc21` [Compound 442, 1-(2-chloroethyl)-3-[4-(3-cyano-1-ethyl-6-methoxy-1H-indol-2-yl)-phenyl]-urea]: the IC50 in data set [1] (setting [2]) is above 2 µM.

On to `CCOC(=O)Nc1cccc(-c2c(C#N)c3ccc(OCCCN4CCCC4)cc3n2CC)c1` [Compound 530, {3-[3-cyano-1-ethyl-6-(3-pyrrolidin-1-yl-propoxy)-1H-indol-2-yl]-phenyl}-carbamic acid ethyl ester], for which the half-maximal inhibitory concentration (IC50) in data set [1] (Hepatitis C virus, read-out: Replicon IC50) was below 0.5 µM.

With `C=Cn1c(-c2ccc(NS(=O)(=O)CCCCl)cc2)c(C#N)c2ccc(OC)cc21` [Compound 636], the IC50 in data set [1] (read-out: Replicon IC50) was in the range of 0.5 to 2 µM.

In the case of `CCn1c(-c2ccc(N3CCOC3=O)cc2)c(C#N)c2ccc(OC(C)C)cc21` [Compound 638, 1-ethyl-6-isopropoxy-2-[4-(2-oxo-oxazolidin-3-yl)-phenyl]-1H-indole-3-carbonitrile], the IC50 in data set [1] (setting [2]) is above 2 µM.

Take `CCn1c(-c2ccc(NS(=O)(=O)CCN3CCOCC3)cc2)c(C#N)c2ccc(OC)cc21` [Compound 653, 2-morpholin-4-yl-ethanesulfonic acid [4-(3-cyano-1-ethyl-6-methoxy-1H-indol-2-yl)-phenyl]amide]: the IC50 in data set [1] (setting [2]) is above 2 µM.

On to `CCn1c(-c2ccc(N3CCNC3=O)cc2)c(C#N)c2ccc(OC)cc21` [Compound 771, 1-ethyl-6-methoxy-2-[4-(2-oxo-imidazolidin-1-yl)-phenyl]-1H-indole-3-carbonitrile], for which the IC50 in data set [1] (setting [2]) was below 0.5 µM.

For `CCn1c(-c2ccc([N+](=O)[O-])cc2)c(C#N)c2cc(C(C)=O)c(OC)cc21` [Compound 844, 5-acetyl-1-ethyl-6-methoxy-2-(4-nitro-phenyl)-1H-indole-3-carbonitrile], the IC50 in data set [1] (setting [2]) was above 2 µM.

Take `CCn1c(-c2ccc([N+](=O)[O-])cc2)c(C#N)c2cc(CN3CCOCC3)c(OC)cc21` [Compound 845, 1-ethyl-6-methoxy-5-morpholin-4-ylmethyl-2-(4-nitro-phenyl)-1H-indole-3-carbonitrile]: in data set [1] (setting [2]), the IC50 is above 2 µM.

Consider `CCn1c(-c2ccc(NS(=O)(=O)CC)cc2)c(C#N)c2ccc(OC(F)(F)F)cc21` [Compound 881, ethanesulfonic acid [4-(3-cyano-1-ethyl-6-trifluoromethoxyindol-2-yl)phenyl]amide], for which the melting point fell in the range of 194 to 195 °C.

Molecule `CCn1c(-c2ccc(N3CCCS3(=O)=O)cc2)c(C#N)c2ccc(OC(F)(F)F)cc21` [Compound 903, 2-[4-(1,1-dioxidoisothiazolidin-2-yl)phenyl]-1-ethyl-6-(trifluoromethoxy)indole-3-carbonitrile] showed a melting point of 230 to 232 °C.

With `C=CCn1c(-c2ccc(N3CCCC3=O)cc2)c(C#N)c2ccc(OC)cc21` [Compound 938, 1-allyl-6-methoxy-2-[4-(2-oxopyrrolidin-1-yl)-phenyl]-1H-indole-3-carbonitrile], the melting point lay within 147 to 148 °C.

In turn, `CCn1c(-c2ccc(N3CCCS3(=O)=O)cc2)c(C#N)c2ccc(OC3CC3)cc21` [Compound 1046, 6-cyclopropoxy-2-[4-(1,1-dioxo-1λ^6-isothiazolidin-2-yl)-phenyl]-1-ethyl-1H-indole-3-carbonitrile] registered a melting point of 232 to 234 °C.

In turn, `CCn1c(-c2ccc(NC(=O)OC)cc2)c(C#N)c2ccc(OC(F)F)cc21` [Compound 1130, [4-(3-cyano-6-difluoromethoxy-1-ethyl-1H-indol-2-yl)-phenyl]-carbamic acid methyl ester] showed a melting point of 177 to 178 °C.

The molecule `CCOc1ccc2c(C#N)c(-c3ccc(NC(=O)N4CCOCC4)cc3)n(C3CCC3)c2c1` [Compound 1166, morpholine-4-carboxylic acid [4-(3-cyano-1-cyclobutyl-6-ethoxy-1H-indol-2-yl)-phenyl]-amide] came in with a melting point of 260 to 266 °C.

Consider `CCn1c(-c2ccc(NC(=O)C3CC3)cc2)c(C#N)c2ccc(OCCn3ccnc3)cc21` [Compound 1183, cyclopropanecarboxylic acid {4-[3-cyano-1-ethyl-6-(2-imidazol-1-yl-ethoxy)-1H-indol-2-yl]-phenyl}-amide], for which the melting point lay within 202.3 to 205.9 °C.

The molecule `CCOc1ccc2c(C#N)c(-c3ccc(N(CC)CC)cc3)n(C3CCC3)c2c1` [Compound 1217, 1-Cyclobutyl-2-(4-diethylamino-phenyl)-6-ethoxy-1H-indole-3-carbonitrile] displayed a melting point of 135 to 141 °C.

`COc1ccc2c(C#N)c(-c3ccc(NC(=O)OC(C)C)cc3)n(C3CC3)c2c1` [Compound 1234, [4-(3-cyano-1-cyclopropyl-6-methoxyindol-2-yl)phenyl]carbamic acid isopropyl ester] registered a melting point of 204 to 205 °C.

Consider `CCNc1ccc(-c2c(C#N)c3ccc(OCC)cc3n2C2CCC2)cc1` [Compound 1239, 1-cyclobutyl-6-ethoxy-2-(4-ethylaminophenyl)-1H-indole-3-carbonitrile], for which the melting point was 187 to 193 °C.

As to `CCOc1ccc2c(C#N)c(-c3ccc(N(CC)C(=O)OC4CCCC4)cc3)n(C3CCC3)c2c1` [Compound 1251, [4-(3-cyano-1-cyclobutyl-6-ethoxy-1H-indol-2-yl)-phenyl]-ethyl-carbamic acid cyclopentyl ester], the melting point is 137 to 142 °C.

`CC(C)OC(=O)Nc1ccc(-c2c(C#N)c3ccc(OCCCn4cncn4)cc3n2C2CCC2)cc1` [Compound 1255, {4-[3-cyano-1-cyclobutyl-6-(3-[1,2,4]triazol-1-yl-propoxy)-1H-indol-2-yl]-phenyl}-carbamic acid isopropyl ester] returned a melting point of 208 °C.

The molecule `CC(C)OC(=O)Nc1ccc(-c2c(C#N)c3ccc(OCCn4cncn4)cc3n2C2CCC2)cc1` [Compound 1276, {4-[3-cyano-1-cyclobutyl-6-(2-[1,2,4]triazol-1-yl-ethoxy)-1H-indol-2-yl]-phenyl}-carbamic acid isopropyl ester] returned a melting point of 214 °C.

Molecule `CC(C)NC(=O)Nc1ccc(-c2c(C#N)c3ccc(OCCCn4cncn4)cc3n2C2CCC2)cc1` [Compound 1314, 1-{4-[3-cyano-1-cyclobutyl-6-(3-[1,2,4]triazol-1-yl-propoxy)-1H-indol-2-yl]-phenyl}-3-isopropyl-urea] registered a melting point of 88 to 90 °C.

Turning to `CC(OC(=O)Nc1ccc(-c2c(C#N)c3ccc(OCCn4cncn4)cc3n2C2CCC2)cc1)C1CC1` (stereo not shown) [Compound 1329, {4-[3-cyano-1-cyclobutyl-6-(2-[1,2,4]triazol-1-yl-ethoxy)-1H-indol-2-yl]-phenyl}-carbamic acid 1-cyclopropyl-ethyl ester], the melting point came out at 98 °C.

“N-(2-chloro-ethyl)-N′-[4-(3-cyano-1-ethyl-6-methoxy-1H-indol-2-yl)phenyl]sulfamide [Compound 724]”: the IC50 in data set [1] (read-out: Replicon IC50) is 0.5 to 2 µM.

Turning to “ethanesulfonic acid [4-(3-cyano-6-difluoromethoxy-1-ethyl-1H-indol-2-yl)-phenyl]-amide [Compound 519]”, in data set [1] (read-out: Replicon IC50), the IC50 was below 0.5 µM.

For orientation: melting point means the temperature of the solid-liquid transition. One may read the IC50 as the point on the concentration scale where inhibition reaches its midpoint.
